{"source": "patent US20230002726A1", "about": "“METHODS OF IN-OVO SCREENING OF ANTI-CANCER THERAPIES” (ICHILOV TECH LTD., priority 2020, published 2023)", "origin": "cited, not measured here", "tested_on": "MSI-low tumors", "settings": "stated as known; cited from earlier work"}
{"substance": "Pembrolizumab [Keytruda]", "values": [{"measurement": "known effectiveness", "result": "ineffective"}]}
